Experiments:
RXRα [1] = molecular target: T1, RXRα (Homo sapiens, UniProt P19793); assay: RXRα receptor transactivation (Table 1); type: cell-based; conditions: RXR α; for Emax: read-out: % Eff
T1 construct: expressed in transfected cells
T1 sequence (P19793 1-462): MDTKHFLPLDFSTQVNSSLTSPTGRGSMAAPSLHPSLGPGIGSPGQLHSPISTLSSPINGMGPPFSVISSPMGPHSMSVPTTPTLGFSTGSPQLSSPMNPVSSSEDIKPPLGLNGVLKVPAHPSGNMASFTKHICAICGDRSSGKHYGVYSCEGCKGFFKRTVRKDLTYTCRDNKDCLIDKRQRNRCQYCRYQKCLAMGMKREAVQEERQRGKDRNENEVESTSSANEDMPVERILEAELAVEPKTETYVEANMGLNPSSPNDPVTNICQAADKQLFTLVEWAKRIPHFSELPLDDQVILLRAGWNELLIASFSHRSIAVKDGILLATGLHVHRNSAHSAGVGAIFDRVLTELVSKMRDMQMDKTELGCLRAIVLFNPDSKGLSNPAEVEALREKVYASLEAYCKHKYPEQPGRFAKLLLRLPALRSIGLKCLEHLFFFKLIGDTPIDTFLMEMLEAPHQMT
From the text: (§1) Other assays described below, measure the ability of the compounds of the present invention to bind to, and/or activate various retinoid receptor subtypes. When in these assays a compound binds to a given receptor subtype and activates the transcription of a reporter gene through that subtype, then the compound is considered an agonist of that receptor subtype. […] In the below described assays the ability of the compounds to bind to RARα, RARβ, RARγ, RXRα, RXRβ and RXRγ receptors, and the ability or inability of the compounds to activate transcription of a reporter gene through these receptor subtypes can be tested. […] However, some of the compounds of the invention may behave as retinoid antagonists or partial antagonists and/or as inverse agonists. Because of the complex distribution of the different retinoid receptors in various organs of the mammalian body partial agonists and partial antagonists and compounds which have the characteristics of both may lend themselves to particularly useful therapeutic applications and may avoid serious side effects of conventional retinoid drugs.
The specification of U.S. Pat. No. 5,455,265 is hereby expressly incorporated by reference.
(§2) A holoreceptor transactivation assay and a ligand binding assay which measure the antagonist/agonist like activity of the compounds of the invention, or their ability to bind to the several retinoid receptor subtypes, respectively, are described in published PCT Application No. WO WO93/11755 (particularly on pages 30-33 and 37-41) published on Jun. 24, 1993, the specification of which is also incorporated herein by reference. A detailed experimental procedure for holoreceptor transactivations has been described by Heyman et al. Cell 68, 397-406, (1992); Allegretto et al. J. Biol. Chem. 268, 26625-26633, and Mangelsdorf et al. The Retinoids: Biology, Chemistry and Medicine, pp 319-349, Raven Press Ltd., New York, which are expressly incorporated herein by reference. The results obtained in this assay are expressed in EC50 numbers, as they are also in the chimeric receptor transactivation assay. The results of ligand binding assay are expressed in Kd numbers. (See Cheng et al. Biochemical Pharmacology Vol. 22 pp 3099-3108, expressly incorporated herein by reference.)

RXRβ = molecular target: T2, RXRβ (Mus musculus, UniProt P28704); assay: RXRβ receptor transactivation (Table 1); type: cell-based; conditions: RXR β; for Emax: read-out: % Eff
T2 construct: expressed in transfected cells
T2 sequence (P28704 1-520): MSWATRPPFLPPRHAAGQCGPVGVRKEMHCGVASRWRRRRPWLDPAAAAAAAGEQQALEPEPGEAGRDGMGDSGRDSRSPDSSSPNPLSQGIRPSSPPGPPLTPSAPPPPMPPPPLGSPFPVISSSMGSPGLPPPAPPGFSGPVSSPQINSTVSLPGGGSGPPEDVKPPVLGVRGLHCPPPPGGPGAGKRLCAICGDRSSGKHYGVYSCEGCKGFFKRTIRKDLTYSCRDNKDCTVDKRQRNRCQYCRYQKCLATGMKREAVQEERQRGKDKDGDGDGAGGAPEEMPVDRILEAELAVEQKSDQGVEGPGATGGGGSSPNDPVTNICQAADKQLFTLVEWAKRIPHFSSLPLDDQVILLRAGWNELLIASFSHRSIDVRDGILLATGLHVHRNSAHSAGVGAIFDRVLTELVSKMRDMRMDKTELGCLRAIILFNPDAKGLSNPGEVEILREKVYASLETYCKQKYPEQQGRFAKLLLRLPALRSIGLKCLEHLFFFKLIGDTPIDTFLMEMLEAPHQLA
From the text: as §1, §2

RXRγ [2] = molecular target: T3, RXRγ (Mus musculus, UniProt P28705); assay: RXRγ receptor transactivation (Table 1); type: cell-based; conditions: RXR γ; for Emax: read-out: % Eff
T3 construct: expressed in transfected cells
T3 sequence (P28705 1-463): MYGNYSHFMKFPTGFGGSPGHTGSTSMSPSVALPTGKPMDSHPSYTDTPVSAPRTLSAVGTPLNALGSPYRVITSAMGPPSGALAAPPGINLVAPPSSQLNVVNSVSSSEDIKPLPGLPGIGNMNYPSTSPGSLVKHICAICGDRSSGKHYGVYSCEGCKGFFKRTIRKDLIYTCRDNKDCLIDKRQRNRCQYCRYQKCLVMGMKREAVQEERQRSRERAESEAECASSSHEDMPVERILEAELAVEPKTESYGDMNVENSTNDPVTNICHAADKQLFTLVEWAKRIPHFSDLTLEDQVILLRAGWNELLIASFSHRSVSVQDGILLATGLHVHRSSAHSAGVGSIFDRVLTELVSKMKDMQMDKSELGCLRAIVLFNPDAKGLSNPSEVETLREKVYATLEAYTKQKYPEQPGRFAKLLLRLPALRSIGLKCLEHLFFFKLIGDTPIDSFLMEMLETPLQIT
From the text: as §1, §2

RXRα [3] = molecular target: T1, RXRα; assay: RXRα ligand binding (Table 1); conditions: RXR α
From the text: as §1
as §2, with “(See Cheng et al. Biochemical Pharmacology Vol. 22 pp 3099-3108, expressly incorporated herein by reference.)” left out

RXRγ [4] = molecular target: T3, RXRγ; assay: RXRγ ligand binding (Table 1); conditions: RXR γ
From the text: as §1
as §2, with “(See Cheng et al. Biochemical Pharmacology Vol. 22 pp 3099-3108, expressly incorporated herein by reference.)” left out

RARα = molecular target: T4, RARα (Homo sapiens, UniProt P10276); assay: RARα ligand binding (Table 2); conditions: RAR α
T4 sequence (P10276 1-462): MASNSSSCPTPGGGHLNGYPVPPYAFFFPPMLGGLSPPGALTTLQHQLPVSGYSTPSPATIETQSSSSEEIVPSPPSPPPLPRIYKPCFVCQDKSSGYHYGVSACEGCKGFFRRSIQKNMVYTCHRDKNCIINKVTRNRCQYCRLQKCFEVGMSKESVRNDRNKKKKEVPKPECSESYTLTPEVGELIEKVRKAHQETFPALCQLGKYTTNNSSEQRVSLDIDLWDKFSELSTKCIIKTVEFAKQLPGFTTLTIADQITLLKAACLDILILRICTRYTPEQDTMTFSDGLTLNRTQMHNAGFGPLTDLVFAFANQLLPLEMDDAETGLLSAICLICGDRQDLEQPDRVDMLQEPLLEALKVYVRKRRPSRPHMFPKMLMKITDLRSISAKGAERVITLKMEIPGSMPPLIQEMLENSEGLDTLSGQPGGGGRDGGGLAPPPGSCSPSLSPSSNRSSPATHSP
From the text: as §1
as §2, with “(See Cheng et al. Biochemical Pharmacology Vol. 22 pp 3099-3108, expressly incorporated herein by reference.)” left out

RARβ = molecular target: T5, RARβ (Homo sapiens, UniProt P10826); assay: RARβ ligand binding (Table 2); conditions: RAR β
T5 sequence (P10826 1-448 isoform P10826-2): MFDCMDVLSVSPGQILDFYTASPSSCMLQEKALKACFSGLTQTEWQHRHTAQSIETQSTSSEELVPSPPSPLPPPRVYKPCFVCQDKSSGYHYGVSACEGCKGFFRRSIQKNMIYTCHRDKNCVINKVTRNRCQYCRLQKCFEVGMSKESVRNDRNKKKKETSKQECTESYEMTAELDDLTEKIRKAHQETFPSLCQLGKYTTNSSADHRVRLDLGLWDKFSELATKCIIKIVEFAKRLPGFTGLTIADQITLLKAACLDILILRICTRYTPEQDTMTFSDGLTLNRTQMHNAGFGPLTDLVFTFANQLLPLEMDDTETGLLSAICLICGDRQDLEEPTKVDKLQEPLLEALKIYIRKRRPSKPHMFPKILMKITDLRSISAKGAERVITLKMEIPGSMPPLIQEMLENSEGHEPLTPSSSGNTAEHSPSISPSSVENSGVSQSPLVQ
From the text: as §1
as §2, with “(See Cheng et al. Biochemical Pharmacology Vol. 22 pp 3099-3108, expressly incorporated herein by reference.)” left out

RARγ = molecular target: T6, RARγ (Homo sapiens, UniProt P13631); assay: RARγ ligand binding (Table 2); conditions: RAR γ
T6 sequence (P13631 1-454): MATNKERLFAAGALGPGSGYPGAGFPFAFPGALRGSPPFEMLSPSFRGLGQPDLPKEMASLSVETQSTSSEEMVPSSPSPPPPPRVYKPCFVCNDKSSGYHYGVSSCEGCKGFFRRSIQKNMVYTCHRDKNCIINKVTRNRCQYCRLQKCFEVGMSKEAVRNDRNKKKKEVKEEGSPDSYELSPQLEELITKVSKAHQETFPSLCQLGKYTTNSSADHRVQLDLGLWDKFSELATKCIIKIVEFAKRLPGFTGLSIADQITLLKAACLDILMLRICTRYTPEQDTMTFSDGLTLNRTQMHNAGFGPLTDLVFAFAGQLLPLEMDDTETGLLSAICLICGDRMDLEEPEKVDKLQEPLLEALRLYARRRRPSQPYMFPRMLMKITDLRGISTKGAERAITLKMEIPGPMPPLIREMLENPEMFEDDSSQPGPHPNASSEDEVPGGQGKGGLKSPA
From the text: as §1
as §2, with “(See Cheng et al. Biochemical Pharmacology Vol. 22 pp 3099-3108, expressly incorporated herein by reference.)” left out

SMILES	EC50 (RXRα [1]) [nM]	Emax (RXRα [1]) [%]	EC50 (RXRβ) [nM]	Emax (RXRβ) [%]	EC50 (RXRγ [2]) [nM]	Emax (RXRγ [2]) [%]	Kd (RXRα [3]) [nM]	Kd (RXRγ [4]) [nM]	Kd (RARα) [nM]	Kd (RARβ) [nM]	Kd (RARγ) [nM]
CC(/C=C/[C@@H]1C[C@]1(C)c1ccc2c(c1)C(C)(C)CC(=O)N2C(C)C)=C\C(=O)O [Compound 1, (6S,7S)-7-(4,4-Dimethyl-2-oxo-1-(2-propyl)-1,2,3,4-tetrahydroquinolin-6-yl)-6,7-methano-3-methyl-octa-2E,4E-dienoic acid]	0.077	107	0.627	109	0.085	115	1.4	3.1	> 10000	> 10000	> 10000
CC(/C=C/[C@@H]1C[C@]1(C)c1ccc2c(c1)C(C)(C)CCN2C(=O)OC(C)(C)C)=C\C(=O)O [Compound 17]	0.15	110	0.42	115	0.31	101	0.35	4.1	> 30000	10000	12000
CC(/C=C/[C@@H]1C[C@]1(C)c1ccc2c(c1)C(C)(C)CC(=S)N2C(C)C)=C\C(=O)O [Compound 2, (6S,7S)-7-(4,4-Dimethyl-1-(2-propyl)-2-thioxo-1,2,3,4-tetrahydroquinolin-6-yl)-6,7-methano-3-methyl-octa-2E,4E-dienoic acid]	0.064	160	0.376	144	0.059	137	0.97	10.5	27000	31000	25000

— patent publication US6048873A, “Tetrahdroquinolin-2-one 6 or 7-yl, tetrahdroquinilin-2-thione 6 or 7-yl pentadienoic acid and related derivatives having retinoid-like biological activity” (Allergan Sales, Inc., priority 1998, dated 2000)
